Test results reported in patent US7550451B2, “Progesterone receptor modulators with increased antigonadotropic activity for female birth control and hormone replacement therapy” (Bayer Schering Pharma AG, priority 2002, dated 2009).

Assays:
Glucocorticoid receptor = molecular target: T1, Glucocorticoid receptor (Rattus norvegicus, UniProt P06536); experiment: Receptor binding affinity, glucocorticoid receptor (competitive binding, 3H-dexamethasone); settings: Dexamethasone = 100%; thymus cytosol of adrenalectomized rat
T1 construct: Thymus cytosol of the adrenalectomized rat; from tissue; host or cells: thymus cytosol of adrenalectomized rat
T1 sequence (P06536 1-795): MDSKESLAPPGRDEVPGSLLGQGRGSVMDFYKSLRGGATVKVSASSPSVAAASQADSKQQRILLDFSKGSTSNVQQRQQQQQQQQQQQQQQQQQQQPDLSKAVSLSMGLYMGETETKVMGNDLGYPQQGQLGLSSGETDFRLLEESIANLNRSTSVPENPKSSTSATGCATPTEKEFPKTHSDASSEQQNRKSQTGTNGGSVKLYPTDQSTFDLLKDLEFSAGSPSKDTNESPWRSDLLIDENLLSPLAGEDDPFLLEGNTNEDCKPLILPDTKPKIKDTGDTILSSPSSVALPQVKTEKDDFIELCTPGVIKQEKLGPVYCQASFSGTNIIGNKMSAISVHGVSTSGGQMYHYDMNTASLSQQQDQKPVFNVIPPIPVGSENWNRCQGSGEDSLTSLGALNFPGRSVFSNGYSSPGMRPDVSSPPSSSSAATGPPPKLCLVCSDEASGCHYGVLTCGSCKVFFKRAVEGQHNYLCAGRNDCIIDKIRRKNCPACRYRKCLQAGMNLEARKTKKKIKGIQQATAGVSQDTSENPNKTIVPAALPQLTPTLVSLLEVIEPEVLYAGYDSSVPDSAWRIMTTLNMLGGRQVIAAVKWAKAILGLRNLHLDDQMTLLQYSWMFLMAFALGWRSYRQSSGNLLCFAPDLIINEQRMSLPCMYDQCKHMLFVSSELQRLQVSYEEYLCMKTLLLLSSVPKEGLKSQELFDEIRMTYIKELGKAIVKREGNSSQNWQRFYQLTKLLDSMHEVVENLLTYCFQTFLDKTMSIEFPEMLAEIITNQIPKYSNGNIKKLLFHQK
Protocol: (§1) The receptor binding affinity was determined by competitive binding of a specifically binding ^3H-labeled hormone (tracer) and the compound to be tested on receptors in the cytosol from animal target organs. In this case, receptor saturation and reaction equilibrium were sought.
(§2) The tracers and increasing concentrations of the compound to be tested (competitor) were co-incubated with the receptor-containing cytosol fraction at 0-4° C. over 18 hours. After separation of the unbonded tracer with carbon-dextran suspension, the receptor-bonded tracer portion was measured for each concentration, and the IC50 was determined from the concentration sequence. As a quotient of the IC50 values of the reference substance and the compound to be tested (×100%), the relative molar binding affinity (RBA) was calculated (RBA of the reference substance=100%).
Thymus cytosol of the adrenalectomized rat, thymi stored at −30° C.; buffer: TED. Tracer: ^3H-Dexamethasone, 20 nmol; reference substance: dexamethasone.

Androgen receptor = molecular target: T2, Androgen receptor (Rattus norvegicus, UniProt P15207); experiment: Receptor binding affinity, androgen receptor (competitive binding, 3H-metribolone); settings: prostate cytosol of castrated rat; for AR relative molar binding affinity (RBA) a) against RU 1881: reference RU 1881 (metribolone); for AR relative molar binding affinity (RBA) b) against dihydrotestosterone (DHT): reference dihydrotestosterone
T2 construct: Prostate cytosol of the castrated rat; from tissue; host or cells: prostate cytosol of castrated rat
T2 sequence (P15207 1-902): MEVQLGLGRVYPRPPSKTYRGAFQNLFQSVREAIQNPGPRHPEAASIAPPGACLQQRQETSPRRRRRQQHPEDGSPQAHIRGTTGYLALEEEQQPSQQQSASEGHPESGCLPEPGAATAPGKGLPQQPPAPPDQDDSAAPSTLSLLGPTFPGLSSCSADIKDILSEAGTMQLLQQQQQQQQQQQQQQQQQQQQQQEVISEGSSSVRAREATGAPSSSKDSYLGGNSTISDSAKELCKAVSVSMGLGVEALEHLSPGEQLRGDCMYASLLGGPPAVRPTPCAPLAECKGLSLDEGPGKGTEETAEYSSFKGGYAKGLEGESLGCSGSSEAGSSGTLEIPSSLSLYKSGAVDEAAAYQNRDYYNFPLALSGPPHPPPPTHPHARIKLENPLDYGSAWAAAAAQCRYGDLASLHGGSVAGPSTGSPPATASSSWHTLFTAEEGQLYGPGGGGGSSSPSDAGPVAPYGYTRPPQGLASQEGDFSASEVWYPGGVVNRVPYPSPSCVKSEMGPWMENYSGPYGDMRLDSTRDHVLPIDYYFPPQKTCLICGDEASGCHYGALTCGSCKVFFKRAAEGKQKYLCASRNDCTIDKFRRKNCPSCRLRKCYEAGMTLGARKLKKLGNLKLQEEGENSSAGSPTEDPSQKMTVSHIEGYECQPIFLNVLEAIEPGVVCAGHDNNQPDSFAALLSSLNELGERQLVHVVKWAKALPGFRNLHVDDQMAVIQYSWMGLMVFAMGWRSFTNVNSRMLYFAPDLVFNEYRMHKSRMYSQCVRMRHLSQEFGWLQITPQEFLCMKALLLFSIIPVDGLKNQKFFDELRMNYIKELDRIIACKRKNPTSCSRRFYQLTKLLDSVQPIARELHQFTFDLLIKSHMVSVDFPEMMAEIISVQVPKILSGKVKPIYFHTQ
Protocol: as §1, §2
Prostate cytosol of the castrated rat; prostates stored at −30° C.; buffer: TED with 10% glycerol as well as 2 μmol of triamcinolone acetonide. Tracer: ^3H-metribolone 4 nmol; reference substances: metribolone (RU 1881) or 5α-dihydrotestosterone.

Progesterone receptor = molecular target: T3, Progesterone receptor (Oryctolagus cuniculus, UniProt P06186); experiment: Receptor binding affinity, progesterone receptor (competitive binding, 3H-ORG 2058); settings: Progesterone = 100%; uterus cytosol of estradiol-primed rabbit
T3 construct: Uterus cytosol of the estradiol-primed rabbit; from tissue; host or cells: uterus cytosol of estradiol-primed rabbit
T3 sequence (P06186 1-930): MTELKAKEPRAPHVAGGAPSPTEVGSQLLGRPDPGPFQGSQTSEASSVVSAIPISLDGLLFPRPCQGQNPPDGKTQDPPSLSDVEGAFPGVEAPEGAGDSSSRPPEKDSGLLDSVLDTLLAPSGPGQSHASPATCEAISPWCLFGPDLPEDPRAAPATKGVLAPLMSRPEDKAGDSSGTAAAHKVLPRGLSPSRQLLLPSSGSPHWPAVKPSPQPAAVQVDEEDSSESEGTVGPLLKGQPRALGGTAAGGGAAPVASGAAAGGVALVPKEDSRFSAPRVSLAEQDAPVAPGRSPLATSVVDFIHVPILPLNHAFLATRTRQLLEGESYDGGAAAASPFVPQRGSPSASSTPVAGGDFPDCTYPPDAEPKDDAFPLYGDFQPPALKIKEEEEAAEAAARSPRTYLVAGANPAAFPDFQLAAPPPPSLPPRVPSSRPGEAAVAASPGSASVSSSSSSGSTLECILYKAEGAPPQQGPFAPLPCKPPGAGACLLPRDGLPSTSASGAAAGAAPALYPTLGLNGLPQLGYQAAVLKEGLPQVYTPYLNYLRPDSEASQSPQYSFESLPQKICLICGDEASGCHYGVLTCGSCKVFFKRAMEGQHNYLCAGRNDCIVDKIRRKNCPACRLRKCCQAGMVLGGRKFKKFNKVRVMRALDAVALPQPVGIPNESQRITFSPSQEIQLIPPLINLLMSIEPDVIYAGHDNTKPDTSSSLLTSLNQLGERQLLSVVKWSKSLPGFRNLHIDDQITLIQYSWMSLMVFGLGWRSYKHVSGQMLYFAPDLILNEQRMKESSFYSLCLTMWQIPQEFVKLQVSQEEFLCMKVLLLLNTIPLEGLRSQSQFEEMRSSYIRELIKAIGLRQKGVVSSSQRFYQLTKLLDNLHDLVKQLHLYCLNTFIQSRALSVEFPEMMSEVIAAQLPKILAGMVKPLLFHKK
Protocol: as §1, §2
Uterus cytosol of the estradiol-primed rabbit; homogenized in TED buffer (20 mmol of Tris/HCl, pH 7.4; 1 mmol of ethylenediamine tetraacetate, 2 mmol of dithiothreitol) with 250 mmol of saccharose; stored at −30° C. Tracer: ^3H-ORG 2058, 5 nmol; reference substance: progesterone.

adult female rats = experiment: Nidation-inhibiting test (antifertile effects in the perinidation phase); type: in vivo; settings: day 5-7 of pregnancy, rat
Protocol: The determination of the progesterone-antagonistic activities was carried out on adult female rats in the nidation-inhibiting test. The principle of the test is described as follows: progesterone preserves pregnancy in all stages. An early-abortive action can accordingly be expected from competitive progesterone antagonists. Female rats (Schoe strain: WIST Tierzucht GmbH Schönwalde) with a weight of 180-200 g were subjected daily to a cycle control and paired up in proestrus. The beginning of pregnancy was determined by detecting sperm in the vaginal smear on the same day (=day 1 of pregnancy=d1 p.c.). From the 5th-7th day of pregnancy, the test substances were injected subcutaneously daily. On the 9th day, vaginal smears were taken, then the animals were autopsied and the uteri were prepared. The degeneration of implants and pathological, hemorrhagic and otherwise abnormal nidation sites were counted as abortions and are shown in Table 2.

Row | Molecule | GR relative molar binding affinity (RBA) (Glucocorticoid receptor) [%] | AR relative molar binding affinity (RBA) a) against RU 1881 (Androgen receptor) | AR relative molar binding affinity (RBA) b) against dihydrotestosterone (DHT) (Androgen receptor) | PR relative molar binding affinity (RBA) (Progesterone receptor) [%] | Rate of Animals with Complete Inhibition of Nidation (adult female rats; 1.0 mg/animal/day s.c.) | Rate of Animals with Complete Inhibition of Nidation (adult female rats; 0.3 mg/animal/day s.c.) | Rate of Animals with Complete Inhibition of Nidation (adult female rats; 3.0 mg/animal/day s.c.)
1 | CC(=O)O[C@H]1CC[C@H]2[C@@H]3CCC4=C(Br)C(=O)CCC4=C3[C@@H](c3ccc(/C=N/O)cc3)C[C@]12C [Example 13, 4-(17β-Acetoxy-4′-bromo-3-oxoestra-4,9-dien-11β-yl)benzaldehyde-1-(E)oxime] | 0.35 | a) 6% | b) 10% | 45 | – | – | –
2 | CO[C@H]1CC[C@H]2[C@@H]3CCC4=CC(=O)CCC4=C3[C@@H](c3ccc(/C=N/O)cc3)C[C@]12C [Example 5, 4-(17β-Methoxy-3-oxoestra-4,9-dien-11β-yl)benzaldehyde-1(E)-oxime] | 14 | a) 21% | b) 32% | 159 | 0/4 | – | –
3 | CC#C[C@]1(O)CC[C@H]2[C@@H]3CCC4=CC(=O)CCC4=C3[C@@H](c3ccc(N(C)C)cc3)C[C@@]21C [RU 38 486, reference compound] | – | – | – | – | 2/5 | 0/5 | 5/5
4 | CCNC(=O)O/N=C/c1ccc([C@H]2C[C@@]3(C)[C@@H](CC[C@@]3(O)CO)[C@@H]3CCC4=CC(=O)CCC4=C32)cc1 [Example 20, 4-[17β-Hydroxy-17α-hydroxymethyl-3-oxoestra-4,9-dien-11β-yl]benzaldehyde-1-(E)-[O-(ethylamino)-carbonyl]oxime] | 5 | a) 4% | b) 7% | 12 | – | – | –
5 | 4-(4′-Bromo-17β-methoxy-3-oxoestra-4,9-dien-11β-yl)benzaldehyde-1(E)-oxime [Example 7] | 0.69 | a) 8.7% | b) 13.2% | 110 | – | – | –
6 | CC12CC(c3ccc(C=NO)cc3)C3=C4CCC(=O)C=C4CCC3C1CCC2(O)CBr (stereo not drawn) [Example 10, 4-(17α-Bromomethyl-17β-hydroxy-3-oxoestra-4,9-dien-11β-yl)benzaldehyde-1(E)-oxime] | 3 | a) 0.6% | b) 0.9% | 21 | – | – | –
7 | CC1(O)CCC2C3CCC4=C(Br)C(=O)CCC4=C3C(c3ccc(C=NO)cc3)CC21C (stereo not drawn) [Example 6, 4-(4′-Bromo-17β-hydroxy-17α-methyl-3-oxoestra-4,9-dien-11β-yl)benzaldehyde-1(E)-oxime] | 0.76 | a) 14% | b) 22% | 106 | 5/5 | – | –
